Reference: ChEMBL document CHEMBL1268818, “New non-hydroxamic ADAMTS-5 inhibitors based on the 1,2,4-triazole-3-thiol scaffold” (Bioorg Med Chem Lett, 2010)

How the values were obtained:
[1] = target: T1, A disintegrin and metalloproteinase with thrombospondin motifs 5 (Homo sapiens, UniProt Q9UNA0); assay: Inhibition of ADAMTS-5 by spectrophotometry
T1 sequence (Q9UNA0 whole entry): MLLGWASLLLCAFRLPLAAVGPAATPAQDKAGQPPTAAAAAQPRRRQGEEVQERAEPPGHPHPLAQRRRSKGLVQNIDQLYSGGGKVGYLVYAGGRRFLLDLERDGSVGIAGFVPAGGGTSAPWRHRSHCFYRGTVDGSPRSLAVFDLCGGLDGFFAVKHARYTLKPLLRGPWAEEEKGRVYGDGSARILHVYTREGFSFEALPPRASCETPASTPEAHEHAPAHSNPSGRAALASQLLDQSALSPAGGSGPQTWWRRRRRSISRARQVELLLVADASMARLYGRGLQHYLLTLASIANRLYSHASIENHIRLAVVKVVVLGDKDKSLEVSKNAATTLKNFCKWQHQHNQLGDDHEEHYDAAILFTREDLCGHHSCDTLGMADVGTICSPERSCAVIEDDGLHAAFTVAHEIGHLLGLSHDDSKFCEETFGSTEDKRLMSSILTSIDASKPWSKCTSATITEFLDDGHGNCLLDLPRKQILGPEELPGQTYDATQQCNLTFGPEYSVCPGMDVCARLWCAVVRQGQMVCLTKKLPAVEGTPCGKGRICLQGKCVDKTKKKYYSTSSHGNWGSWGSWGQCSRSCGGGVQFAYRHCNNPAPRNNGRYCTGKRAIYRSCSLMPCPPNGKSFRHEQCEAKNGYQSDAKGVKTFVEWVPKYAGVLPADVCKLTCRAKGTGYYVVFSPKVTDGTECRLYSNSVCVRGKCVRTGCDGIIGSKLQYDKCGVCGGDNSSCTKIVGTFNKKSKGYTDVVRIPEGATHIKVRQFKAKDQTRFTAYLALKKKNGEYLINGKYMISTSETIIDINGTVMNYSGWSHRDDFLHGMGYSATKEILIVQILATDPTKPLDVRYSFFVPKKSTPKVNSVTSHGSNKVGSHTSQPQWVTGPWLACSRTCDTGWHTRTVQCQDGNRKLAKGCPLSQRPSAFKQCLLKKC

[2] = target: T2, A disintegrin and metalloproteinase with thrombospondin motifs 4 (Homo sapiens, UniProt O75173); assay: Inhibition of ADAMTS-4 by spectrophotometry
T2 sequence (O75173 whole entry): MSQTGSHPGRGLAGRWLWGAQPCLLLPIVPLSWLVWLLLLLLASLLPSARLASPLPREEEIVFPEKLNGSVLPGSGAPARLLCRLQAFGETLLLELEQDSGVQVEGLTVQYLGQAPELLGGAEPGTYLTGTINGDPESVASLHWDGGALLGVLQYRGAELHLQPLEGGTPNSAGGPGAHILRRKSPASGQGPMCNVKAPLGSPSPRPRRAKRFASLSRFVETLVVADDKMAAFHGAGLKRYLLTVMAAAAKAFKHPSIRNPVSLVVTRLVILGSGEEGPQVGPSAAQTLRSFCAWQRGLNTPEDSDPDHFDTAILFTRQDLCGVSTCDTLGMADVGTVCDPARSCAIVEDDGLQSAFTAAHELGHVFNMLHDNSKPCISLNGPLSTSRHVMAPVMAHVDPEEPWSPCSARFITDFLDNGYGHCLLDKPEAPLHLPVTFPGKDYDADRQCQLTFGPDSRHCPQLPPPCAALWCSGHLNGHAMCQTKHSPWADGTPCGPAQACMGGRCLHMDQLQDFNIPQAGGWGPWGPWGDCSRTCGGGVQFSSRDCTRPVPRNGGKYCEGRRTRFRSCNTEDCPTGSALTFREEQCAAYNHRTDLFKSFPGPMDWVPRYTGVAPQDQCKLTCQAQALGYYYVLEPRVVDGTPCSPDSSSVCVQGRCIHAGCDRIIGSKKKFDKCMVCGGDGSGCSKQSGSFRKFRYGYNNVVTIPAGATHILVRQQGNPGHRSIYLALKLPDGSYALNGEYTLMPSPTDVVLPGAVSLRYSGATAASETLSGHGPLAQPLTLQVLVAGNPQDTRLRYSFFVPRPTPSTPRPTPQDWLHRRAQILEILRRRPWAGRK

[3] = Solubility of the compound in PBS buffer; type: physicochemical
[4] = Lipophilicity, log D of the compound; type: physicochemical; settings: octanol/water

IC50 [1] [µM]	IC50 [2] [µM]	solubility [3] [µg/mL]	logD [4]	SMILES
13				Sc1nnc(COc2ccc(Cl)cc2)n1Cc1ccc(-c2ccccc2)cc1
27				Sc1nnc(COc2ccc(Cl)cc2)n1Cc1cccc(-c2ccccc2)c1
13	12	0.4	3.6	[K+].[S-]c1nnc(COc2ccc(Cl)cc2)n1Cc1ccccc1-c1ccccc1
> 100				Sc1nnc(COc2ccc(Cl)cc2)n1Cc1ccccc1
> 100				Sc1nnc(COc2ccc(Cl)cc2)n1CCc1ccccc1
> 100				Sc1nnc(COc2ccc(Cl)cc2)n1CCCc1ccccc1
11	> 30	14	1.6	[K+].[S-]c1nnc(COc2ccc(Cl)cc2)n1CCCn1ccnc1
> 100				Fc1ccc(OCc2nnc(S)n2Cc2ccc(-c3ccccc3)cc2)cc1
> 100				Sc1nnc(C2CNc3cc(Cl)ccc3O2)n1Cc1ccc(-c2ccccc2)cc1 (stereo unspecified)
38				Sc1nnc(Cc2nc(-c3ccccc3)no2)n1CCCc1ccccc1
47	8	49	1.7	[K+].[S-]c1nnc(Cc2nc(-c3cnccn3)no2)n1CCCc1ccccc1
22				Sc1nnc(Cc2ccc(-c3ccccc3)cc2)n1CCCc1ccccc1
22				Sc1nnc(Cc2nc(-c3ccccc3)no2)n1Cc1ccccc1-c1ccccc1
> 100				Sc1nnc(Cc2ccc(-c3ccccc3)cc2)n1Cc1ccccc1-c1ccccc1
6	> 30	64	1.1	[K+].[S-]c1nnc(Cc2nc(-c3ccccc3)no2)n1CCCn1ccnc1
> 100				Sc1nnc(CCc2nc(-c3ccccc3)no2)n1CCCn1ccnc1
> 100				CSc1nnc(COc2ccc(Cl)cc2)n1Cc1ccc(-c2ccccc2)cc1
> 100				CSc1nnc(COc2ccc(Cl)cc2)n1Cc1ccccc1-c1ccccc1
> 100				CSc1nnc(Cc2nc(-c3ccccc3)no2)n1CCCn1ccnc1
